Experimental data published in ChEMBL document CHEMBL1201862, “PubChem BioAssay data set” (2004).
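In this assay, cells in 96-well plates receive the compound at five concentrations for 48 hours. Endpoints are linearly interpolated between the surrounding concentrations. Abbreviation: GI50, concentration required for 50% inhibition of growth.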 The source made the active and inactive calls. No stated cut-off is given here; in the data, active = GI50 up to about 1.1 µM and inactive = higher.

How the values were obtained:
Assay in all cases: NCI anticancer screen, dose series, 48 h
KM-20L2 = system: KM-20L2
DMS-273 = system: DMS-273
LXFL 529 = system: LXFL 529
RXF 631 = system: RXF 631
XF498 = system: XF498
HOP-18 = system: HOP-18
DMS-114 = system: DMS-114
M19-MEL = system: M19-MEL
DLD-1 = system: DLD-1

SMILES	GI50 (KM-20L2)	GI50 (DMS-273)	GI50 (LXFL 529)	GI50 (RXF 631)	GI50 (XF498)	GI50 (HOP-18)	GI50 (DMS-114)	GI50 (M19-MEL)	GI50 (DLD-1)
CC[N+]1(C)CCC(O)(c2ccc(OC)cc2)C(C(=O)c2ccc(OC)cc2)C1 (stereo not given)	21.9 µM (inactive)	19 µM (inactive)	3.49 µM (inactive)	18.5 µM (inactive)	11 µM (inactive)	14.7 µM (inactive)	19.9 µM (inactive)	20.5 µM (inactive)	2.88 µM (inactive)
Clc1ccc(C[P+](c2ccccc2)(c2ccccc2)c2ccccc2)cc1Cl	2.94 µM (inactive)	2.01 µM (inactive)	–	–	1.32 µM (inactive)	2.1 µM (inactive)	1.52 µM (inactive)	1.79 µM (inactive)	9.2 µM (inactive)
CCCCCCCCCCNC(=S)OC	32.7 µM (inactive)	51.5 µM (inactive)	33.7 µM (inactive)	62.1 µM (inactive)	–	> 100 µM (inactive)	15.6 µM (inactive)	29 µM (inactive)	36.8 µM (inactive)
Cc1cc(N(CCC#N)CCC#N)ccc1/C=C1/N=C(c2ccccc2)N(N)C1=O	> 100 µM (inactive)	89.1 µM (inactive)	> 100 µM (inactive)	–	> 100 µM (inactive)	–	75 µM (inactive)	> 100 µM (inactive)	> 100 µM (inactive)
CCCCc1c2c(nc3c1CCCC3=O)C(=O)CCC2	> 100 µM (inactive)	> 100 µM (inactive)	> 100 µM (inactive)	–	> 100 µM (inactive)	> 100 µM (inactive)	> 100 µM (inactive)	> 100 µM (inactive)	> 100 µM (inactive)
CCOc1ccc2nc(NC(=O)C(=O)C(C(=O)c3ccccc3-c3ccccc3)C3OC(=O)c4ccccc43)sc2c1 (stereo not given)	22.4 µM (inactive)	23.1 µM (inactive)	17.4 µM (inactive)	–	21.3 µM (inactive)	–	14.8 µM (inactive)	19.1 µM (inactive)	29.6 µM (inactive)
NCCCNCCSP(=O)(O)O [AMIFOSTINE]	> 719 µM (inactive)	> 750 µM (inactive)	–	–	> 422 µM (inactive)	> 750 µM (inactive)	> 750 µM (inactive)	514 µM (inactive)	> 750 µM (inactive)
CC(=O)c1cc([N+](=O)[O-])ccc1OCC(=O)O	> 100 µM (inactive)	> 100 µM (inactive)	> 100 µM (inactive)	> 100 µM (inactive)	–	–	> 100 µM (inactive)	> 100 µM (inactive)	> 100 µM (inactive)
CN(O)C(=O)c1ccccc1	> 100 µM (inactive)	> 100 µM (inactive)	> 100 µM (inactive)	> 100 µM (inactive)	> 100 µM (inactive)	–	> 100 µM (inactive)	> 100 µM (inactive)	> 100 µM (inactive)
OCCN1CCN(CC/C=C2/c3ccccc3Sc3ccc(Cl)cc32)CC1	2.07 µM (inactive)	6.05 µM (inactive)	5.74 µM (inactive)	–	12.6 µM (inactive)	1.5 µM (inactive)	16.4 µM (inactive)	1.94 µM (inactive)	13.4 µM (inactive)
CCCCC1(C2c3ccccc3Oc3ccccc32)C(=O)N(c2ccccc2)N(c2ccccc2)C1=O	22.5 µM (inactive)	47 µM (inactive)	–	–	> 31.9 µM (inactive)	> 100 µM (inactive)	–	> 100 µM (inactive)	25.8 µM (inactive)
CC1=C(C(=O)NCc2ccccc2)C(c2ccc(C3C(C(=O)NCc4ccccc4)=C(C)NC(C)=C3C(=O)NCc3ccccc3)cc2)C(C(=O)NCc2ccccc2)=C(C)N1	13.9 µM (inactive)	9.42 µM (inactive)	4.58 µM (inactive)	–	14.9 µM (inactive)	37.5 µM (inactive)	12.6 µM (inactive)	8.39 µM (inactive)	3.44 µM (inactive)
COc1ccc(-c2onc(-c3ccc([N+](=O)[O-])cc3)c2C2=NCCCN2)cc1	44.3 µM (inactive)	–	> 100 µM (inactive)	–	> 100 µM (inactive)	3.4 µM (inactive)	–	> 100 µM (inactive)	> 100 µM (inactive)
O=C1OC(c2ccccc2)(c2ccccc2)c2ccc3ccc(F)cc3c21	21.8 µM (inactive)	7.21 µM (inactive)	> 100 µM (inactive)	51.4 µM (inactive)	> 100 µM (inactive)	–	9.23 µM (inactive)	20.7 µM (inactive)	> 100 µM (inactive)
C=C1C2Oc3ccccc3C1N(c1ccccc1)O2 (stereo not given)	37.6 µM (inactive)	> 10 µM (inactive)	35.2 µM (inactive)	16 µM (inactive)	17.4 µM (inactive)	–	23.3 µM (inactive)	42.7 µM (inactive)	26.7 µM (inactive)
COc1ccc(-c2nc(SC)n(C3OC(COC(C)=O)C(OC(C)=O)C(OC(C)=O)C3OC(C)=O)c(=O)c2C#N)cc1 (stereo not given)	95.5 µM (inactive)	–	35.2 µM (inactive)	–	–	–	–	–	–
Cn1c(/C=C/CO)c(CO)c2c1C(=O)C=C(N1CC1)C2=O [APAZIQUONE]	0.0147 µM (active)	< 0.01 µM (active)	–	–	< 0.01 µM (active)	< 0.01 µM (active)	< 0.01 µM (active)	< 0.01 µM (active)	0.0152 µM (active)
CC(=O)OCc1cc(=O)n(C)c2c3c4c(cc12)c(C)cc(=O)n4CO3	2.02 µM (inactive)	0.982 µM (active)	–	–	1.17 µM (inactive)	5.33 µM (inactive)	1.69 µM (inactive)	1.43 µM (inactive)	1.37 µM (inactive)
CCOC(=O)c1sc(Nc2cc(Cl)ccc2Cl)nc1C	54.7 µM (inactive)	–	91.4 µM (inactive)	> 100 µM (inactive)	48.4 µM (inactive)	> 100 µM (inactive)	93.3 µM (inactive)	> 100 µM (inactive)	44.7 µM (inactive)
CC(C)c1cccc2sc(NC(=O)C(=O)CC(=O)c3ccc(F)cc3)nc12	> 100 µM (inactive)	> 100 µM (inactive)	> 100 µM (inactive)	> 100 µM (inactive)	> 100 µM (inactive)	–	> 100 µM (inactive)	> 100 µM (inactive)	> 100 µM (inactive)
CC(Oc1ccc(OCC2CCCCC2)cc1)C(=O)N(CCO)CCO (stereo not given)	–	> 100 µM (inactive)	> 100 µM (inactive)	–	> 100 µM (inactive)	> 100 µM (inactive)	> 100 µM (inactive)	> 100 µM (inactive)	–
